# According to paper PMC7265429, “Characterization of a new small-molecule inhibitor of HDAC6 in glioblastoma” (Cell Death & Disease, 2020):
# Test system: GNS166 cells
# Assay: Microarray whole-transcriptome gene expression analysis
# Format: cell-based, human
# Details: 5 µM SAHA vs DMSO
# Experimental: Whole-transcriptome analysis was performed from 300 ng of RNA using HuGene-2_0-st-v1 expression array (Affymetrix), which covers 48,226 transcripts. Raw data were first checked for quality purposes through the Affymetrix® Expression Console™ Software v1.4.1 and TAC software v4.0. Then, data were normalized using the Robust Multi-array Average (RMA) and analyzed by Limma tool. Probesets with FDR-corrected p-values smaller than 0.05 were selected. Functional enrichment on Gene Ontology (GO) biological processes was performed on a smaller subset of the differentially expressed genes (corrected p-value < 0.001) by means of Broad Institute GSEA. […] The data that support this study have been deposited in NCBI´s Gene Expression Omnibus and are accessible through GEO series accession number GSE143887.
compound,measurement,setting,value
"O=C(CCCCCCC(=O)Nc1ccccc1)NO [SAHA, Suberoylanilide hydroxamic acid]",logFC C4orf32,transcript TC0400008424.hg.1,1.313
same,logFC USP53,transcript TC0400008557.hg.1,1.38
same,logFC SPRY1,transcript TC0400008628.hg.1,1.671
same,logFC PCDH10,transcript TC0400008725.hg.1,3.614
same,logFC LRAT,transcript TC0400009068.hg.1,2.43
same,logFC GUCY1B3,transcript TC0400009088.hg.1,2.131
same,logFC GRIA2,transcript TC0400009110.hg.1,2.789
same,logFC WDR17,transcript TC0400009376.hg.1,2.897
same,logFC TLR10,transcript TC0400010449.hg.1,2.282
same,logFC TEC,transcript TC0400010618.hg.1,1.822
same,logFC SPINK2,transcript TC0400010780.hg.1,1.664
same,logFC PAQR3,transcript TC0400011130.hg.1,1.64
same,logFC HPSE,transcript TC0400011203.hg.1,1.993
same,logFC ABCG2,transcript TC0400011279.hg.1,2.81
same,logFC NDNF,transcript TC0400011732.hg.1,1.962
same,logFC CBR4,transcript TC0400012375.hg.1,2.0355
same,logFC CCDC110,transcript TC0400012640.hg.1,2.964
same,logFC STIM2,transcript TC0400012781.hg.1,2.698
same,logFC STIM2,transcript TC0400012782.hg.1,1.4133
same,logFC TMEM144,transcript TC0400012854.hg.1,1.56
same,logFC MFAP3L,transcript TC0400012992.hg.1,1.287
same,logFC ROPN1L,transcript TC0500006744.hg.1,1.559
same,logFC CDH6,transcript TC0500007044.hg.1,1.462
same,logFC HEXB,transcript TC0500007792.hg.1,1.236
same,logFC ADGRV1,transcript TC0500008055.hg.1,1.802
same,logFC C5orf30,transcript TC0500008233.hg.1,1.583
same,logFC ACTBL2,transcript TC0500010822.hg.1,3.506
same,logFC SGTB,transcript TC0500010932.hg.1,1.8638
same,logFC MEF2C,transcript TC0500011418.hg.1,3.2962
same,logFC PCSK1,transcript TC0500011513.hg.1,2.7195
same,logFC ST8SIA4,transcript TC0500011579.hg.1,2.463
same,logFC NREP,transcript TC0500011705.hg.1,1.704
same,logFC SEMA6A,transcript TC0500011775.hg.1,1.39
same,logFC MARCH3,transcript TC0500011935.hg.1,1.4429
same,logFC BASP1,transcript TC0500013155.hg.1,2.0101
same,logFC BMP6,transcript TC0600006873.hg.1,2.494
same,logFC CD83,transcript TC0600007012.hg.1,1.54
same,logFC SLC25A27,transcript TC0600008166.hg.1,2.967
same,logFC TMEM14A,transcript TC0600008262.hg.1,1.194
same,logFC OGFRL1,transcript TC0600008486.hg.1,1.1708
same,logFC TPD52L1,transcript TC0600009353.hg.1,1.7761
same,logFC KIAA0319,transcript TC0600011065.hg.1,1.327
same,logFC GSTA4,transcript TC0600012059.hg.1,1.152
same,logFC ELOVL4,transcript TC0600012379.hg.1,1.597
same,logFC GPR63,transcript TC0600012625.hg.1,1.5628
same,logFC CTGF,transcript TC0600013186.hg.1,1.2152
same,logFC SGK1,transcript TC0600013231.hg.1,2.01
same,logFC CITED2,transcript TC0600013361.hg.1,1.453
same,logFC MICA,transcript TC0600014101.hg.1,1.308
same,logFC TBC1D7,transcript TC0600014241.hg.1,1.745
same,logFC GCLC,transcript TC0600014300.hg.1,1.594
same,logFC SCIN,transcript TC0700006735.hg.1,1.966
same,logFC TSPAN13,transcript TC0700006783.hg.1,2.267
same,logFC RUNDC3B,transcript TC0700008261.hg.1,2.108
same,logFC PEG10,transcript TC0700008367.hg.1,1.87
same,logFC SDHAF3,transcript TC0700008430.hg.1,2.085
same,logFC CPED1,transcript TC0700008928.hg.1,1.813
same,logFC FKBP14,transcript TC0700010621.hg.1,1.44
same,logFC IGFBP3,transcript TC0700010965.hg.1,3.673
same,logFC PCLO,transcript TC0700011655.hg.1,1.736
same,logFC TFPI2,transcript TC0700011809.hg.1,1.387
same,logFC DOCK4,transcript TC0700012276.hg.1,2.262
same,logFC KCNH2,transcript TC0700013050.hg.1,1.762
same,logFC DOCK5,transcript TC0800007057.hg.1,2.096
same,logFC CHCHD7,transcript TC0800007697.hg.1,1.373
same,logFC GDAP1,transcript TC0800007985.hg.1,1.791
same,logFC STMN2,transcript TC0800008044.hg.1,3.942
same,logFC CA3,transcript TC0800008124.hg.1,3.677
same,logFC CA2,transcript TC0800008126.hg.1,1.801
same,logFC STC1,transcript TC0800009891.hg.1,3.859
same,logFC TEX15,transcript TC0800010045.hg.1,3.073
same,logFC ZMAT4,transcript TC0800010224.hg.1,2.513
same,logFC ENPP2,transcript TC0800011620.hg.1,1.943
same,logFC FBXO16,transcript TC0800012396.hg.1,1.919
same,logFC SLC1A1,transcript TC0900006522.hg.1,1.427
same,logFC CD274,transcript TC0900006559.hg.1,1.67
same,logFC ZNF483,transcript TC0900008425.hg.1,1.1693
same,logFC OLFM1,transcript TC0900009145.hg.1,2.218
same,logFC MLLT3,transcript TC0900009673.hg.1,1.64
same,logFC NMRK1,transcript TC0900010445.hg.1,1.539
same,logFC DIRAS2,transcript TC0900010737.hg.1,1.619
same,logFC CTSV,transcript TC0900010933.hg.1,2.165
same,logFC MEGF9,transcript TC0900011379.hg.1,1.37
same,logFC PHYHIPL,transcript TC1000007714.hg.1,2.12
same,logFC SFR1,transcript TC1000008798.hg.1,1.8477
same,logFC VIM-AS1,transcript TC1000009920.hg.1,1.211
same,logFC DNAJC12,transcript TC1000010827.hg.1,2.378
same,logFC CPEB3,transcript TC1000011420.hg.1,1.535
same,logFC MPP7,transcript TC1000012536.hg.1,1.855
